The record followed here is paper PMC9203742 (Nature Communications, 2022).

Experiment [1] addresses T1, mGlu1 A59H/G266H mutant (Rattus norvegicus, UniProt P23385, A59H/G266H).
T1 construct: expressed in transfected cells; host or cells: HEK293
The experiment can be described thus: Fura-2 Ca2+ imaging in HEK293 cells expressing mGlu1 A59H/G266H. The format is cell-based. As to conditions: Fig.1e.

The next experiment deals with T2, WT mGlu1 (Rattus norvegicus, UniProt P23385).
T2 construct: expressed in transfected cells; host or cells: HEK293
It is filed as cell-based.

In the next experiment the target is T3, mGlu1 P57H/N264H mutant (Rattus norvegicus, UniProt P23385, N264H/P57H).
T3 construct: expressed in transfected cells; host or cells: HEK293
The experiment in a line: Fura-2 Ca2+ imaging in HEK293 cells expressing mGlu1 P57H/N264H. The format is cell-based.

The target of a further experiment is T4, mGlu1 K61H/N264H mutant (Rattus norvegicus, UniProt P23385, K61H/N264H).
T4 construct: expressed in transfected cells; host or cells: HEK293
The experiment can be described thus: Fura-2 Ca2+ imaging in HEK293 cells expressing mGlu1 K61H/N264H. It is filed as cell-based.

Experiment [2] addresses T5, mGlu1 A59H/A265H mutant (Rattus norvegicus, UniProt P23385, A265H/A59H).
T5 construct: expressed in transfected cells; host or cells: HEK293
The experiment in a line: Fura-2 Ca2+ imaging in HEK293 cells expressing mGlu1 A59H/A265H. As to conditions: single-cell values. It is filed as cell-based.

The target of experiment [3] is T1, mGlu1 A59H/G266H mutant. The experiment in a line: Fura-2 Ca2+ imaging in HEK293 cells expressing mGlu1 A59H/G266H. It is filed as cell-based. Conditions: single-cell values.
In experiment [4] the test system is mGlu1 construct not given. The experiment in a line: Fura-2 Ca2+ imaging in HEK293 cells, source data Suppl Fig1, right group (c18-c26); construct not given. It is filed as cell-based, rat. Conditions: single-cell values, cells #15-#20; right group of third block. The source says:
(§1) Supplement 41467_2022_30828_MOESM6_ESM.zip/Ojima et al_source data_Suppl Fig.xlsx, sheet "Suppl Fig1" | column: Glu; NiCl2; CuCl2; ZnCl2; CdCl2; Na2PdCl2; Pd(bpy)

For experiment [5], the target named is T5, mGlu1 A59H/A265H mutant. The experiment in a line: Fura-2 Ca2+ imaging in HEK293 cells expressing mGlu1 A59H/A265H. It is filed as cell-based. As to conditions: Fig.1e.
Experiment [6] has as its system mGlu1 construct not given. The experiment in a line: Fura-2 Ca2+ imaging in HEK293 cells, source data Suppl Fig1, middle group (c9-c17); construct not given. It is filed as cell-based, rat. Conditions: single-cell values, cells #15-#20; middle group of third block.
Excerpt: as §1

The target of the next experiment is T6, mGlu1 P58H/N264H mutant (Rattus norvegicus, UniProt P23385, N264H/P58H).
T6 construct: expressed in transfected cells; host or cells: HEK293
The experiment can be described thus: Fura-2 Ca2+ imaging in HEK293 cells expressing mGlu1 P58H/N264H. The format is cell-based.

In experiment [7] the test system is mGlu1 construct not given. The experiment in a line: Fura-2 Ca2+ imaging in HEK293 cells, source data Suppl Fig1, left group (c0-c8); construct not given. The format is cell-based, rat. As to conditions: single-cell values, cells #15-#20; left group of third block.
Excerpt: as §1

In the next experiment the target is T7, mGlu1 E60H/N264H mutant (Rattus norvegicus, UniProt P23385, E60H/N264H).
T7 construct: expressed in transfected cells; host or cells: HEK293
The experiment in a line: Fura-2 Ca2+ imaging in HEK293 cells expressing mGlu1 E60H/N264H. The format is cell-based.

The test system of experiment [8] is HEK293 cells, vector control. The experiment in a line: Fura-2 Ca2+ imaging in HEK293 cells transfected with control vector (Vec). The format is cell-based. As to conditions: single-cell values #1-#20.
Experiment [9] deals with HEK293 cells, vector control. The experiment is described as above. It is filed as cell-based. As to conditions: Fig.1e. An excerpt: Supplement 41467_2022_30828_MOESM6_ESM.zip/Ojima et al_source data_Main Figure.xlsx, sheet "Fig.1e" | column: Vec
For a further experiment, the target named is T8, mGlu1 A59H/N264H mutant (Rattus norvegicus, UniProt P23385, A59H/N264H).
T8 construct: expressed in transfected cells; host or cells: HEK293
The experiment in a line: Fura-2 Ca2+ imaging in HEK293 cells expressing mGlu1 A59H/N264H. It is filed as cell-based.

Molecules are shown by their SMILES. Where “and” joins values, the source holds several entries; their conditions need not be identical. Identical values can stand only once.
Throughout, for Ca2+ response (delta ratio), A59H/G266H: test concentration or dose not given here.
Throughout, for Ca2+ response (delta ratio), WT: test concentration or dose not given here.
Throughout, for Ca2+ response of individual cells (source data Suppl Fig1), Vec: test concentration or dose not given here.
Throughout, for Ca2+ response of individual cells (source data Suppl Fig1), WT: test concentration or dose not given here.

T5 sequence (P23385 19-1199 A59H/A265H): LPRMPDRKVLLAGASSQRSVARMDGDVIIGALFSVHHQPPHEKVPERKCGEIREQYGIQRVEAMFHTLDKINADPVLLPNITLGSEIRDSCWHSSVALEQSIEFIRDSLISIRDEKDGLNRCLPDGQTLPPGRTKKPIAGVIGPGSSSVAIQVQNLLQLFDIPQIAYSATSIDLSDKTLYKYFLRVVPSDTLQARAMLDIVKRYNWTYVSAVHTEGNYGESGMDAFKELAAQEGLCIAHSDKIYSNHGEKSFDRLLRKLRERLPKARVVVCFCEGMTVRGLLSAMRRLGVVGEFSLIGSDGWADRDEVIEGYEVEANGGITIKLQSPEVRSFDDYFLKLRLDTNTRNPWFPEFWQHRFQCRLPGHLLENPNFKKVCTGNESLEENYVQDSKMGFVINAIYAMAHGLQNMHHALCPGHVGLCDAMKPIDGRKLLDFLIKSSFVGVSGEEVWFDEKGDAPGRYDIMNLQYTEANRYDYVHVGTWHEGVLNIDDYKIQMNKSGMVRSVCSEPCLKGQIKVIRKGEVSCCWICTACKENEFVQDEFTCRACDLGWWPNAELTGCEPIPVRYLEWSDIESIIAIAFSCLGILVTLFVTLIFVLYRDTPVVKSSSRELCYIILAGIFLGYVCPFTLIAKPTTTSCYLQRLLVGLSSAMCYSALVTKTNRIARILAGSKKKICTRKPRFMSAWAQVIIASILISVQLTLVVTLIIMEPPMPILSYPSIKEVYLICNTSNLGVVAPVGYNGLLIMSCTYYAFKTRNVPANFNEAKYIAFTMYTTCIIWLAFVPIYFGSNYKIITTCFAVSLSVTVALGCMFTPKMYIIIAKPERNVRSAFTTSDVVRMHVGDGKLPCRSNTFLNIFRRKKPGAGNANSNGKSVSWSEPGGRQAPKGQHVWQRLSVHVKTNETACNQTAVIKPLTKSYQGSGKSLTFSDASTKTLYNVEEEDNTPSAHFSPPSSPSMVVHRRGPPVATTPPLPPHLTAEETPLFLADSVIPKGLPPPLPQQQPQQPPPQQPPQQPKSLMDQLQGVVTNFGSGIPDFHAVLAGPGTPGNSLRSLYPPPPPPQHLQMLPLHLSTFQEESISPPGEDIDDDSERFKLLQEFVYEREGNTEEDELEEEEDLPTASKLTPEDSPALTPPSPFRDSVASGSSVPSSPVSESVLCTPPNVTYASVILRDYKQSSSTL
T2 sequence (P23385 19-1199): as the sequence (P23385 19-1199 A59H/A265H) above, with H41A, H247A counted along it
T1 sequence (P23385 19-1199 A59H/G266H): as the sequence (P23385 19-1199 A59H/A265H) above, with H247A, G248H counted along it
T3 sequence (P23385 19-1199 P57H/N264H): as the sequence (P23385 19-1199 A59H/A265H) above, with P39H, H41A, N246H, H247A counted along it
T8 sequence (P23385 19-1199 A59H/N264H): as the sequence (P23385 19-1199 A59H/A265H) above, with N246H, H247A counted along it
T6 sequence (P23385 19-1199 P58H/N264H): as the sequence (P23385 19-1199 A59H/A265H) above, with P40H, H41A, N246H, H247A counted along it
T7 sequence (P23385 19-1199 E60H/N264H): as the sequence (P23385 19-1199 A59H/A265H) above, with H41A, E42H, N246H, H247A counted along it
T4 sequence (P23385 19-1199 K61H/N264H): as the sequence (P23385 19-1199 A59H/A265H) above, with H41A, K43H, N246H, H247A counted along it

For the molecule `[Cl][Cd][Cl]` [CdCl2], the “Ca2+ response (delta ratio), A59H/G266H” value at mGlu1 A59H/G266H mutant [1] came out at 0.001928. Further, the “Ca2+ response (delta ratio), WT” value at WT mGlu1 (Fig.1e) is on record as 0.005362. In addition, the “Ca2+ response of individual cells (source data Suppl Fig1), WT” value at WT mGlu1 (single-cell values #1-#20, WT) is 0.0129 and 0.04075 and 0.009069 and 0.006385 and -0.009131 and -0.006215 and 0.2594 and 0.005608 and -0.007808 and -0.007346 and 0.0007769 and -0.1317 and -0.001 and -0.06408 and -0.004269 and 0.01558 and -0.01997 and 0.01184 and 0.001662 and -0.005277. The “Ca2+ response (delta ratio), P57H/N264H” value on mGlu1 P57H/N264H mutant (Fig.1e) is 0.03091. Also, the “Ca2+ response of individual cells (source data Suppl Fig1), P57H/N264H” value at mGlu1 P57H/N264H mutant (single-cell values #1-#20, P57H/N264H) is -0.01735 and -0.005323 and -0.01104 and -0.01126 and -0.0097 and -0.003008 and -0.01663 and -0.0067 and -0.01865 and 0.6823 and 0.01155 and -0.0096 and 0.03494 and -0.09688 and -0.01634 and 0.024 and 0.009592 and -0.004469 and 0.09844 and -0.01566. Further, on mGlu1 K61H/N264H mutant (Fig.1e), the “Ca2+ response (delta ratio), K61H/N264H” value stood at 0.01695. Besides, at mGlu1 K61H/N264H mutant (single-cell values, K61H/N264H), the “Ca2+ response of individual cells (source data Suppl Fig1), K61H/N264H” value was 0.003946 and -0.03622 and -0.01614 and -0.01244 and -0.01964 and -0.05083 and -0.008715 and -0.008331 and -0.02813 and 0.002531 and -0.03307 and -0.01172 and 0.5817 and -0.01188. Besides, the “Ca2+ response of individual cells (source data Suppl Fig1), A59H/A265H” value at mGlu1 A59H/A265H mutant [2] was 0.002869 and 0.004277 and -0.0003846 and 0.01228 and 0.01648 and -0.01175 and -0.03786 and 0.01586 and 0.002777 and 0.3308 and 0.2114 and -0.005654 and -0.02447 and 0.0205. On mGlu1 A59H/G266H mutant [3], the “Ca2+ response of individual cells (source data Suppl Fig1), A59H/G266H” value was -0.01723 and 0.01558 and 0.01066 and 0.005608 and 0.01182 and 0.0279 and -0.1123 and -0.0058 and -0.01721 and 0.02262 and 0.01814 and -0.006169 and -0.01936 and 0.04175. The “Ca2+ response of individual cells (source data, sheet Suppl Fig1)” value was 0.03353 and 0.009331 and 0.006908 and 0.01689 and -0.009408 and 0.005315 in experiment [4]; 0.01055 and 0.01355 and -0.009131 and -0.01706 and 0.009777 and -0.01645 in experiment [6]; -0.005954 and 0.01795 and 0.005315 and -0.02397 and -0.001754 and -0.003654 in [7]. For the same molecule, the “Ca2+ response (delta ratio), A59H/A265H” value on mGlu1 A59H/A265H mutant [5] is given as 0.02642. Moreover, the “Ca2+ response (delta ratio), P58H/N264H” value at mGlu1 P58H/N264H mutant (Fig.1e) is given as -0.005715. Further, the “Ca2+ response of individual cells (source data Suppl Fig1), P58H/N264H” value on mGlu1 P58H/N264H mutant (single-cell values #1-#20, P58H/N264H) is 0.0003 and -0.006238 and 0.002354 and -0.001808 and -0.01828 and -0.02019 and -0.005077 and -0.009385 and -0.005592 and -0.02068 and -0.009223 and 0.09017 and -0.003262 and -0.06371 and -0.003885 and -0.002246 and -0.002192 and 0.0005231 and -0.03079. For the same molecule, at mGlu1 E60H/N264H mutant (Fig.1e), the “Ca2+ response (delta ratio), E60H/N264H” value was -0.01186. On mGlu1 E60H/N264H mutant (single-cell values #1-#20, E60H/N264H), the “Ca2+ response of individual cells (source data Suppl Fig1), E60H/N264H” value is -0.009869 and -0.0139 and -0.008638 and -0.01472 and -0.009062 and -0.006669 and -0.004677 and -0.01493 and -0.004954 and 0.001138 and -0.005708 and -0.002215 and 0.01407 and 0.02235 and -0.01174 and -0.009823 and -0.008654 and -0.007631 and -0.02142 and -0.1201. For the same molecule, the “Ca2+ response of individual cells (source data Suppl Fig1), Vec” value in experiment [8] is -0.01042 and -0.01834 and -0.01502 and -0.05052 and -0.04072 and -0.03065 and -0.02875 and -0.03001 and -0.006638 and -0.04038 and -0.04515 and -0.04559 and -0.05998 and -0.01618 and -0.0239 and -0.03979 and -0.02847 and -0.03687 and -0.04005 and -0.03582. In experiment [9], the “Ca2+ response (delta ratio), Vec” value is -0.03216. Also, the “Ca2+ response (delta ratio), A59H/N264H” value on mGlu1 A59H/N264H mutant (Fig.1e) stood at 0.02484. Further, on mGlu1 A59H/N264H mutant (single-cell values #1-#20, A59H/N264H), the “Ca2+ response of individual cells (source data Suppl Fig1), A59H/N264H” value was 0.2588 and -0.01875 and -0.0009538 and 0.004669 and -0.003354 and -0.0081 and -0.03695 and -0.009438 and -0.004808 and -0.01072 and -0.01152 and -0.03409 and 0.4867 and -0.01683 and -0.02968 and -0.006508 and -0.0288 and -0.01271 and -0.01325 and -0.006908.
